Measurements as given in patent US9695155B2, “Herbicidal substituted pyrimidinyloxy benzene compounds” (E. I. DU PONT DE NEMOURS AND COMPANY, priority 2013, dated 2017).

Assays:
wild buckwheat = assay: Test D postemergence; assay type: in vivo, Polygonum convolvulus
From the text: (§1) Seeds of plant species selected from bluegrass (annual bluegrass, Poa annua), blackgrass (Alopecurus myosuroides), canarygrass (littleseed canarygrass, Phalaris minor), chickweed (common chickweed, Stellaria media), galium (catchweed bedstraw, Galium aparine), bromegrass, downy (downy bromegrass, Bromus tectorum), field poppy (Papaver rhoeas), field violet (Viola arvensis), green foxtail (Setaria viridis), deadnettle (henbit deadnettle, Lamium amplexicaule), Italian ryegrass (Lolium multiflorum), kochia (Kochia scoparia), lambsquarters (Chenopodium album), oilseed rape (Brassica napus), pigweed (Amaranthus retroflexus), chamomile (scentless chamomile, Matricaria inodora), Russian thistle (Salsola kali), speedwell (bird's-eye speedwell, Veronica persica), spring barley (Hordeum vulgare), spring wheat (Triticum aestivum), wild buckwheat (Polygonum convolvulus), wild mustard (Sinapis arvensis), wild oat (Avena fatua), wild radish (Raphanus raphanistrum), windgrass (Apera spica-venti), winter barley (Hordeum vulgare), and winter wheat (Triticum aestivum) were planted into a silt loam soil and treated preemergence with test chemicals formulated in a non-phytotoxic solvent mixture which included a surfactant.
(§2) At the same time, these species were planted in pots containing Redi-Earth® planting medium (Scotts Company, 14111 Scottslawn Road, Marysville, Ohio 43041) comprising spaghnum peat moss, vermiculite, wetting agent and starter nutrients and treated with postemergence applications of the test chemicals formulated in the same manner. Plants ranged in height from 2 to 18 cm (1- to 4-leaf stage). Treated plants and controls were maintained in a controlled growth environment for 7 to 21 days after which time all species were compared to controls and visually evaluated. Plant response ratings, summarized in Table D, are based on a scale of 0 to 100 where 0 is no effect and 100 is complete control. A dash (-) response means no test result.

green foxtail = assay: Test D postemergence; assay type: in vivo, Setaria viridis; conditions: for pest or weed control at 16 g/ha: scale 0-100, read-out: Plant response rating, Foxtail, Green
From the text: as §1, §2

Russian thistle [1] = assay: Test D preemergence; assay type: in vivo, Salsola kali; design: key: 0 = no effect, 100 = complete control
From the text: as §1, §2

Russian thistle [2] = assay: Test D postemergence; assay type: in vivo, Salsola kali
From the text: as §1, §2

foxtail, green = assay: Test F preemergence; assay type: in vivo, Setaria viridis; conditions: 21 days, scale 0 to 100
From the text: (§3) Seeds of plant species selected from bermudagrass (Cynodon dactylon), surinam grass (Brachiaria decumbens), large (Lg) crabgrass (Digitaria sanguinalis), crabgrass, naked (naked crabgrass, Digitaria nuda), foxtail, green (green foxtail, Setaria viridis), johnsongrass (Sorghum halepense), kochia (Kochia scoparia), morningglory (pitted morningglory, Ipomoea lacunosa), nutsedge, purple (purple nutsedge, Cyperus rotundus), ragweed (common ragweed, Ambrosia elatior), mustard, black (black mustard, Brassica nigra), guineagrass (Panicum maximum), dallisgrass (Paspalum dilatatum), barnyardgrass (Echinochloa crus-galli), sandbur (southern sandbur, Cenchrus echinatus), sowthistle (common sowthistle, Sonchus oleraceous), Italian ryegrass (Lolium multiflorum), signalgrass (broadleaf signalgrass, Brachiaria platyphylla), dayflower (Virginia (VA) dayflower, Commelina virginica), bluegrass (annual bluegrass, Poa annua), quackgrass (Elytrigia repens), mallow (common mallow, Malva sylvestris), buckwheat, wild (wild buckwheat, Polygonum convolvulus), leafy spurge (Euphorbia esula), chickweed (common chickweed, Stellaria media), wild poinsettia (Euphorbia heterophylla), and pigweed (Amaranthus retroflexus) were planted into a blend of loam soil and sand and treated preemergence with test chemicals formulated in a non-phytotoxic solvent mixture which included a surfactant.
(§4) Treated plants and controls were maintained in a greenhouse for 21 days, after which time all species were compared to controls and visually evaluated. Plant response ratings, summarized in Table F, are based on a scale of 0 to 100 where 0 is no effect and 100 is complete control. A dash (-) response means no test result.

crabgrass, naked = assay: Test F preemergence; assay type: in vivo, Digitaria nuda; conditions: 21 days, scale 0 to 100
From the text: as §3, §4

horseweed = assay: Test E postemergence; assay type: in vivo, Conyza canadensis
From the text: Seeds of plant species selected from corn (Zea mays), soybean (Glycine max), velvetleaf (Abutilon theophrasti), lambsquarters (Chenopodium album), wild poinsettia (Euphorbia heterophylla), palmer pigweed (Amaranthus palmeri), waterhemp (common waterhemp, Amaranthus rudis), surinam grass (Brachiaria decumbens), large (Lg) crabgrass (Digitaria sanguinalis), Brazilian crabgrass (Digitaria horizontalis), fall panicum (Panicum dichotomiflorum), giant foxtail (Setaria faberii), green foxtail (Setaria viridis), goosegrass (Eleusine indica), johnsongrass (Sorghum halepense), ragweed (common ragweed, Ambrosia elatior), barnyardgrass (Echinochloa crus-galli), sandbur (southern sandbur, Cenchrus echinatus), arrowleaf sida (Sida rhombifolia), Italian ryegrass (Lolium multiflorum), dayflower (Virginia (VA) dayflower, Commelina virginica), field bindweed (Convolvulus arvensis), morningglory (Ipomoea coccinea), nightshade (eastern black nightshade, Solanum ptycanthum), kochia (Kochia scoparia), yellow nutsedge (Cyperus esculentus), cocklebur (common cocklebur, Xanthium strumarium), smartweed (ladysthumb smartweed, and hairy beggarticks (Bidens pilosa), were planted into a silt loam soil and treated preemergence with test chemicals formulated in a non-phytotoxic solvent mixture which included a surfactant.
At the same time, plants from these crop and weed species and also horseweed (Canada horseweed, Conyza canadensis), waterhemp_RES1, (ALS & Triazine resistant common waterhemp, Amaranthus rudis), and waterhemp_RES2, (ALS & HPPD resistant common waterhemp, Amaranthus rudis) were planted in pots containing Redi-Earth® planting medium (Scotts Company, 14111 Scottslawn Road, Marysville, Ohio 43041) comprising spaghnum peat moss, vermiculite, wetting agent and starter nutrients were treated with postemergence applications of test chemicals formulated in the same manner. Plants ranged in height from 2 to 18 cm for postemergence treatments (1- to 4-leaf stage). Treated plants and controls were maintained in a greenhouse for 14 to 21 days, after which time all species were compared to controls and visually evaluated. Plant response ratings, summarized in Table E, are based on a scale of 0 to 100 where 0 is no effect and 100 is complete control. A dash (-) response means no test result.

[3] = Fallopia convolvulus, post-emergence, Postemergence, 16 g ai/ha, scale 0 to 100 (0 no effect, 100 complete control), read-out: Plant response rating, Buckwheat, Wild
[4] = Fallopia convolvulus, post-emergence, Postemergence, 31 g ai/ha, scale 0 to 100 (0 no effect, 100 complete control), read-out: Plant response rating, Buckwheat, Wild
[5] = Fallopia convolvulus, post-emergence, Postemergence, 62 g ai/ha, scale 0 to 100 (0 no effect, 100 complete control), read-out: Plant response rating, Buckwheat, Wild
[6] = Fallopia convolvulus, post-emergence, Postemergence, 125 g ai/ha, scale 0 to 100 (0 no effect, 100 complete control), read-out: Plant response rating, Buckwheat, Wild
[7] = Setaria viridis, post-emergence, 16 g ai/ha
[8] = Setaria viridis, post-emergence, 31 g ai/ha, scale 0 to 100 (0 no effect, 100 complete control), read-out: Plant response rating, Foxtail, Green
[9] = Setaria viridis, post-emergence, 62 g ai/ha, scale 0 to 100 (0 no effect, 100 complete control), read-out: Plant response rating, Foxtail, Green
[10] = Setaria viridis, post-emergence, 125 g ai/ha, scale 0 to 100 (0 no effect, 100 complete control), read-out: Plant response rating, Foxtail, Green
[11] = 16 g ai/ha, scale 0 (no effect) to 100 (complete control)
[12] = 31 g ai/ha, scale 0 (no effect) to 100 (complete control)
[13] = 31 g ai/ha, scale 0 to 100 (0 no effect, 100 complete control)
[14] = 62 g ai/ha, scale 0 to 100 (0 no effect, 100 complete control)
[15] = 125 g ai/ha, scale 0 to 100 (0 no effect, 100 complete control)
[16] = postemergence, 16 g ai/ha, scale 0 to 100, 0 no effect, 100 complete control
[17] = Postemergence, 31 g ai/ha, scale 0 to 100
[18] = Postemergence, 62 g ai/ha, scale 0 to 100
[19] = Postemergence, 125 g ai/ha, scale 0 to 100

| SMILES | pest or weed control at 31 g/ha (wild buckwheat; [4]) | pest or weed control at 62 g/ha (wild buckwheat; [5]) | pest or weed control at 125 g/ha (wild buckwheat; [6]) | pest or weed control at 31 g/ha (green foxtail; [8]) | pest or weed control at 62 g/ha (green foxtail; [9]) | pest or weed control at 125 g/ha (green foxtail; [10]) | Plant response rating, Foxtail, Green (foxtail, green; 16 g ai/ha) | Plant response rating, Foxtail, Green (foxtail, green; 31 g ai/ha) | Plant response rating, Foxtail, Green (foxtail, green; 62 g ai/ha) | Plant response rating, Foxtail, Green (foxtail, green; 125 g ai/ha) | Plant response rating, Foxtail, Green (foxtail, green; 250 g ai/ha) | Plant response rating, Crabgrass, Naked (crabgrass, naked; 16 g ai/ha) | Plant response rating, Crabgrass, Naked (crabgrass, naked; 31 g ai/ha) | Plant response rating, Crabgrass, Naked (crabgrass, naked; 62 g ai/ha) | Plant response rating, Crabgrass, Naked (crabgrass, naked; 125 g ai/ha) | Plant response rating, Crabgrass, Naked (crabgrass, naked; 250 g ai/ha) | further results |
| --- | --- | --- | --- | --- | --- | --- | --- | --- | --- | --- | --- | --- | --- | --- | --- | --- | --- |
| Fc1cccc(Oc2ncc(Cl)cn2)c1-n1cc(C(F)F)nn1 [Compound 141, 5-chloro-2-[2-[4-(difluoromethyl)-1H-1,2,3-triazol-1-yl]-3-fluorophenoxy]pyrimidine] | 100% | 100% | 100% | 20% | 45% | 100% |  |  |  |  |  |  |  |  |  |  | pest or weed control at 16 g/ha (wild buckwheat; [3]): 100%; pest or weed control at 16 g/ha (green foxtail; [7]): 15%; Plant response rating, Russian Thistle (Russian thistle [1]; [11]): 15; Plant response rating, Russian Thistle (Russian thistle [1]; [12]): 50; Plant response rating, Russian Thistle (Russian thistle [1]; 62 g ai/ha, scale 0-100): 75; Plant response rating, Russian Thistle (Russian thistle [1]; 125 g ai/ha, scale 0-100): 100; Plant response rating, Russian Thistle (Russian thistle [2]; 16 g ai/ha, scale 0-100): 40; Plant response rating, Russian Thistle (Russian thistle [2]; [13]): 40; Plant response rating, Russian Thistle (Russian thistle [2]; [14]): 85; Plant response rating, Russian Thistle (Russian thistle [2]; [15]): 95 |
| N#Cc1cccc(Oc2ncc(Cl)cn2)c1-n1cc(Br)cn1 [Compound 52, 2-(4-bromo-1H-pyrazol-1-yl)-3-[(5-chloro-2-pyrimidinyl)oxy]benzonitrile] | 80% | 95% | 100% | 15% | 20% | 40% |  |  |  |  |  |  |  |  |  |  | pest or weed control at 250 g/ha (wild buckwheat; Fallopia convolvulus, post-emergence, Postemergence, 250 g ai/ha, scale 0 to 100 (0 no effect, 100 complete control), read-out: Plant response rating, Buckwheat, Wild): 100%; pest or weed control at 250 g/ha (green foxtail; Setaria viridis, post-emergence, 250 g ai/ha, scale 0 to 100 (0 no effect, 100 complete control), read-out: Plant response rating, Foxtail, Green): 75% |
| FCc1cccc(Oc2ncc(Cl)cn2)c1-n1cc(I)cn1 [Compound 245] |  |  |  |  |  |  |  |  |  |  |  |  |  |  |  |  | Plant response rating, Buckwheat, Wild (wild buckwheat; Postemergence, 62 g ai/ha, scale 0 to 100 (0 no effect, 100 complete control)): 75; Plant response rating, Buckwheat, Wild (wild buckwheat; Postemergence, 31 g ai/ha, scale 0 to 100 (0 no effect, 100 complete control)): 70; Plant response rating, Buckwheat, Wild (wild buckwheat; Postemergence, 125 g ai/ha, scale 0 to 100 (0 no effect, 100 complete control)): 90; Plant response rating, Buckwheat, Wild (wild buckwheat; [16]): 70; Plant response rating, Foxtail, Green (green foxtail; 16 g ai/ha, scale 0-100): 10; Plant response rating, Foxtail, Green (green foxtail; [13]): 20; Plant response rating, Foxtail, Green (green foxtail; [14]): 35; Plant response rating, Foxtail, Green (green foxtail; [15]): 45; Plant response rating, Russian Thistle (Russian thistle [1]; [11]): 5; Plant response rating, Russian Thistle (Russian thistle [1]; [12]): 10; Plant response rating, Russian Thistle (Russian thistle [1]; 125 g ai/ha, scale 0-100): 70; Plant response rating, Russian Thistle (Russian thistle [2]; 16 g ai/ha, scale 0-100): 55; Plant response rating, Russian Thistle (Russian thistle [2]; [13]): 75; Plant response rating, Russian Thistle (Russian thistle [2]; [14]): 70; Plant response rating, Russian Thistle (Russian thistle [2]; [15]): 80 |
| N#Cc1cccc(Oc2ncc(Cl)cn2)c1-n1cc(OC(F)F)cn1 [Compound 97] |  |  |  |  |  |  | 75 | 100 | 100 | 100 | 100 | 100 | 100 | 100 | 100 | 100 |  |
| N#Cc1cccc(Oc2ncc(Cl)cn2)c1-n1cc(OCC(F)(F)F)cn1 [Compound 274, 3-[(5-chloro-2-pyrimidinyl)oxy]-2-[4-(2,2,2-trifluoroethoxy)-1H-pyrazol-1-yl]benzonitrile] | 85% | 100% | 100% | 20% | 25% | 45% | 100 | 100 | 100 | 100 | 100 | 100 | 100 | 100 | 100 | 100 | pest or weed control at 16 g/ha (wild buckwheat; [3]): 65%; pest or weed control at 16 g/ha (green foxtail; [7]): 15% |
| Clc1cnc(Oc2cccc(Cl)c2-n2cc(I)cn2)nc1 [Compound 181] |  |  |  |  |  |  |  |  |  |  |  |  |  |  |  |  | Plant response rating, Horseweed (horseweed; [17]): 0; Plant response rating, Horseweed (horseweed; [18]): 5; Plant response rating, Horseweed (horseweed; [19]): 5; Plant response rating, Horseweed (horseweed; [16]): 0 |
| N#Cc1cccc(Oc2ncc(F)cn2)c1-n1cc(C(F)(F)F)cn1 [Compound 79, 3-[(5-fluoro-2-pyrimidinyl)oxy]-2-[4-(trifluoromethyl)-1H-pyrazol-1-yl]benzonitrile] |  |  |  |  |  |  | 95 | 100 | 100 | 100 | 100 | 100 | 100 | 100 | 100 | 100 | Plant response rating, Horseweed (horseweed; [17]): 0; Plant response rating, Horseweed (horseweed; [18]): 20; Plant response rating, Horseweed (horseweed; [19]): 30; Plant response rating, Horseweed (horseweed; [16]): 0 |
